ChEMBL document CHEMBL3046894, “Synthesis and Herbicidal Activity of Pyrimidinyl Salicylic and Thiosalicylic Acids” (J Pestic Sci, 1996)
Active and inactive are the calls of the source. The calls are words filed in the database; no cut-off is given here.

Key:
Persicaria nodosa [1] = assay: Pre-emergence herbicidal activity against Persicaria nodosa assessed as growth inhibition at 25 g a.i/10 a; assay type: functional, organism-based
Ipomoea lacunosa [2] = assay: Pre-emergence herbicidal activity against Ipomoea lacunosa assessed as mortality at 6.3 g a.i/10 a; assay type: functional; conditions: Ipomoea lacunosa, pre-emergence
Gossypium hirsutum [3] = assay: Post-emergence phytotoxicity against Gossypium hirsutum (cotton) assessed as mortality at 6.3 g a.i/10 a applied 11 days after germination as foliar spray; assay type: organism-based; conditions: in vivo, other, 264 h
Xanthium strumarium [4] = assay: Post-emergence herbicidal activity against Xanthium strumarium (cocklebur) assessed as mortality at 6.3 g a.i/10 a applied 11 days after germination as foliar spray; assay type: functional; conditions: 264 h
Glycine max [5] = assay: Pre-emergence phytotoxicity against Glycine max (soybean) assessed as mortality at 1.6 g a.i/10 a; assay type: organism-based; conditions: in vivo, other
Echinochloa crus-galli [6] = assay: Pre-emergence herbicidal activity against Echinochloa crus-galli (barnyard grass) assessed as mortality at 6.3 g a.i/10 a; assay type: functional; conditions: Echinochloa crus-galli, pre-emergence
Echinochloa crus-galli [7] = assay: Post-emergence herbicidal activity against Echinochloa crus-galli (barnyard grass) assessed as growth inhibition at 25 g a.i/10 a applied 11 days after germination as foliar spray; assay type: functional, organism-based
[8] = Pre-emergence phytotoxicity against Zea mays (maize) assessed as mortality at 1.6 g a.i/10 a; assay type: organism-based; conditions: in vivo, 1.6 g a.i/10 a, read-out: mortality
Amaranthus retroflexus [9] = assay: Pre-emergence herbicidal activity against Amaranthus retroflexus assessed as growth inhibition at 25 g a.i/10 a; assay type: functional, organism-based
Chenopodium album [10] = assay: Pre-emergence herbicidal activity against Chenopodium album assessed as growth inhibition at 25 g a.i/10 a; assay type: functional, organism-based
Abutilon theophrasti [11] = assay: Pre-emergence herbicidal activity against Abutilon theophrasti (velvetleaf) assessed as mortality at 6.3 g a.i/10 a; assay type: functional; conditions: Abutilon theophrasti, pre-emergence
Zea mays [12] = assay: Post-emergence phytotoxicity against Zea mays (maize) assessed as mortality at 6.3 g a.i/10 a applied 11 days after germination as foliar spray; assay type: organism-based; conditions: in vivo, other, 264 h
Persicaria nodosa [13] = assay: Post-emergence herbicidal activity against Persicaria nodosa assessed as growth inhibition at 25 g a.i/10 a applied 11 days after germination as foliar spray; assay type: functional, organism-based
Xanthium strumarium [14] = assay: Pre-emergence herbicidal activity against Xanthium strumarium (cocklebur) assessed as mortality at 1.6 g a.i/10 a; assay type: functional; conditions: Xanthium strumarium, pre-emergence
Gossypium hirsutum [15] = assay: Post-emergence phytotoxicity against Gossypium hirsutum (cotton) assessed as mortality at 1.6 g a.i/10 a applied 11 days after germination as foliar spray; assay type: organism-based; conditions: in vivo, other, 264 h
Amaranthus retroflexus [16] = assay: Post-emergence herbicidal activity against Amaranthus retroflexus assessed as growth inhibition at 25 g a.i/10 a applied 11 days after germination as foliar spray; assay type: functional, organism-based
Chenopodium album [17] = assay: Post-emergence herbicidal activity against Chenopodium album assessed as growth inhibition at 25 g a.i/10 a applied 11 days after germination as foliar spray; assay type: functional, organism-based
Glycine max [18] = assay: Pre-emergence phytotoxicity against Glycine max (soybean) assessed as mortality at 6.3 g a.i/10 a; assay type: organism-based; conditions: in vivo, other
Gossypium hirsutum [19] = assay: Pre-emergence phytotoxicity against Gossypium hirsutum (cotton) assessed as mortality at 6.3 g a.i/10 a; assay type: organism-based; conditions: in vivo, other
Abutilon theophrasti [20] = assay: Pre-emergence herbicidal activity against Abutilon theophrasti (velvetleaf) assessed as mortality at 1.6 g a.i/10 a; assay type: functional; conditions: Abutilon theophrasti, pre-emergence
Cyperus iria [21] = assay: Post-emergence herbicidal activity against Cyperus iria assessed as growth inhibition at 25 g a.i/10 a applied 11 days after germination as foliar spray; assay type: functional, organism-based
Glycine max [22] = assay: Post-emergence phytotoxicity against Glycine max (soybean) assessed as mortality at 1.6 g a.i/10 a applied 11 days after germination as foliar spray; assay type: organism-based; conditions: in vivo, other, 264 h
Xanthium strumarium [23] = assay: Post-emergence herbicidal activity against Xanthium strumarium (cocklebur) assessed as mortality at 1.6 g a.i/10 a applied 11 days after germination as foliar spray; assay type: functional; conditions: 264 h
Xanthium strumarium [24] = assay: Pre-emergence herbicidal activity against Xanthium strumarium (cocklebur) assessed as mortality at 6.3 g a.i/10 a; assay type: functional; conditions: Xanthium strumarium, pre-emergence
Echinochloa crus-galli [25] = assay: Pre-emergence herbicidal activity against Echinochloa crus-galli (barnyard grass) assessed as growth inhibition at 25 g a.i/10 a; assay type: functional, organism-based
Echinochloa crus-galli [26] = assay: Pre-emergence herbicidal activity against Echinochloa crus-galli (barnyard grass) assessed as mortality at 1.6 g a.i/10 a; assay type: functional; conditions: Echinochloa crus-galli, pre-emergence
Ipomoea lacunosa [27] = assay: Pre-emergence herbicidal activity against Ipomoea lacunosa assessed as mortality at 1.6 g a.i/10 a; assay type: functional; conditions: Ipomoea lacunosa, pre-emergence
Zea mays [28] = assay: Post-emergence phytotoxicity against Zea mays (maize) assessed as mortality at 1.6 g a.i/10 a applied 11 days after germination as foliar spray; assay type: organism-based; conditions: in vivo, other, 264 h
Glycine max [29] = assay: Post-emergence phytotoxicity against Glycine max (soybean) assessed as mortality at 6.3 g a.i/10 a applied 11 days after germination as foliar spray; assay type: organism-based; conditions: in vivo, other, 264 h
Digitaria sanguinalis [30] = assay: Post-emergence herbicidal activity against Digitaria sanguinalis (hairy crabgrass) assessed as growth inhibition at 25 g a.i/10 a applied 11 days after germination as foliar spray; assay type: functional, organism-based
Cyperus iria [31] = assay: Pre-emergence herbicidal activity against Cyperus iria assessed as growth inhibition at 25 g a.i/10 a; assay type: functional, organism-based
Digitaria sanguinalis [32] = assay: Pre-emergence herbicidal activity against Digitaria sanguinalis (hairy crabgrass) assessed as growth inhibition at 25 g a.i/10 a; assay type: functional, organism-based

COC(=O)c1cccc(Oc2nc(OC)cc(OC)n2)c1C(=O)O
growth inhibition (GI) (Persicaria nodosa [1]): Active
mortality at 63 g/ha (Ipomoea lacunosa [2]): < 5%
Activity (Gossypium hirsutum [3]): Toxic
mortality at 63 g/ha (Xanthium strumarium [4]): < 5%
Activity (Glycine max [5]): Non-toxic
mortality at 63 g/ha (Echinochloa crus-galli [6]): < 5%
growth inhibition (GI) (Echinochloa crus-galli [7]): Active
mortality [8]: < 5%
growth inhibition (GI) (Amaranthus retroflexus [9]): Active
growth inhibition (GI) (Chenopodium album [10]): Active
mortality at 63 g/ha (Abutilon theophrasti [11]): < 5%
Activity (Zea mays [12]): Toxic
growth inhibition (GI) (Persicaria nodosa [13]): Active
mortality at 16 g/ha (Xanthium strumarium [14]): < 5%
Activity (Gossypium hirsutum [15]): Toxic
growth inhibition (GI) (Amaranthus retroflexus [16]): Active
growth inhibition (GI) (Chenopodium album [17]): Active
Activity (Glycine max [18]): Non-toxic
Activity (Gossypium hirsutum [19]): Non-toxic
mortality at 16 g/ha (Abutilon theophrasti [20]): < 5%
growth inhibition (GI) (Cyperus iria [21]): Active
Activity (Glycine max [22]): Toxic
mortality at 16 g/ha (Xanthium strumarium [23]): < 5%
mortality at 63 g/ha (Xanthium strumarium [24]): < 5%
growth inhibition (GI) (Echinochloa crus-galli [25]): inactive
mortality at 16 g/ha (Echinochloa crus-galli [26]): < 5%
mortality at 16 g/ha (Ipomoea lacunosa [27]): < 5%
Activity (Zea mays [28]): Toxic
Activity (Glycine max [29]): Toxic
growth inhibition (GI) (Digitaria sanguinalis [30]): Active
growth inhibition (GI) (Cyperus iria [31]): Active
growth inhibition (GI) (Digitaria sanguinalis [32]): Active
